Consider 22 molecules from US8524702B2, “Substituted benzoazepines as toll-like receptor modulators” (VentiRx Pharmaceuticals, Inc., priority 2009, dated 2013).

The structures appear in SMILES notation.

The test addresses T1, TLR8 (Homo sapiens, UniProt Q9NR97).
T1 sequence (Q9NR97 27-1041): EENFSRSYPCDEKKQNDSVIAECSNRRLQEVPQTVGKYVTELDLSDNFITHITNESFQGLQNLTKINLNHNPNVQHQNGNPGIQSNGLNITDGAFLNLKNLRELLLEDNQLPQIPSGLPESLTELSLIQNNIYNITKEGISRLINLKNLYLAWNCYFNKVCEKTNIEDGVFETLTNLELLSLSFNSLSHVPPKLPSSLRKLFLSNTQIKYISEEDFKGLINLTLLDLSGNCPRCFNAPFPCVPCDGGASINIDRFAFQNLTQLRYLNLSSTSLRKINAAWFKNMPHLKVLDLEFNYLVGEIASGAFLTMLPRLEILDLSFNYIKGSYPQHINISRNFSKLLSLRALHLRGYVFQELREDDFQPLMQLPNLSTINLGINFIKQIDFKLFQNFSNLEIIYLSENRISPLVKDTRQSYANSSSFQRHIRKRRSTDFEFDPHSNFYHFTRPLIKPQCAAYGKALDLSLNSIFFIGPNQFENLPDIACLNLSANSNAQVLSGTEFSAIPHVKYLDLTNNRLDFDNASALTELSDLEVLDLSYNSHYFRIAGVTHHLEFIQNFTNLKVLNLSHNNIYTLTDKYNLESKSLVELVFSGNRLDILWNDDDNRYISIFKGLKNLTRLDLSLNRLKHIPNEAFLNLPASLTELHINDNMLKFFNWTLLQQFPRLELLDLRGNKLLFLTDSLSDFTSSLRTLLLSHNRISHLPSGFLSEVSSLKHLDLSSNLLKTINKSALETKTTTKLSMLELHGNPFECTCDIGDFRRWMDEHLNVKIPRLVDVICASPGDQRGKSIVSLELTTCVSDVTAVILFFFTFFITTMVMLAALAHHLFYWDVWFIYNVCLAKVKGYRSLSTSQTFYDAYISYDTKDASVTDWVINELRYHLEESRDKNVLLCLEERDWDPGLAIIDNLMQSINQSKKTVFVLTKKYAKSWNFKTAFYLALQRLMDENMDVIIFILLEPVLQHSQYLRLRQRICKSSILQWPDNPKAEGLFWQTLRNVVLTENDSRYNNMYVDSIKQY
The test can be described thus: PBMC assay for TLR8 (TNFα in supernatants by ELISA). Format: cell-based. Set-up: Peripheral blood mononuclear cells (PBMCs) from human blood were isolated; endogenous in cells; host or cells: human PBMCs. As to conditions: human PBMCs incubated with compound overnight, MC50 = concentration at which 50% of the maximum induction is seen. As to the method:
Peripheral blood mononuclear cells (PBMCs) from human blood were isolated using BD Vacutainer Cell Preparation Tubes with sodium citrate. Cells were incubated with compound overnight. TLR8 activity was assayed by measuring the amount of TNFα in supernatants by ELISA. TLR7 activity was assayed by measuring the amount of IFNα in supernatants by ELISA (R&D Systems). […] The results of this assay are shown below in Tables 2 and 3.
MC50 numbers are represented as factors of ten, for example, + indicates an MC50 value of ×10^4, or a value in the tens of thousands of nanomolar (nM range); ++ indicates an MC50 value of ×10^3, or a value in the thousands; +++ indicates an MC50 value of ×10^2, or a value in the hundreds; and ++++ indicates an MC50 value of ×10^1 or 10°, or a value in the tens or ones.
For orientation: ELISA stands for enzyme-linked immunosorbent assay.
Usually EC50 stands for the concentration that produces a half-maximal response. Consider `CCCNC(=O)C1=Cc2ccc(-c3ccc(C(=O)N4CCCC4)cc3)cc2N=C(N)C1` [Compound 101, (1E,4E)-2-amino-N-propyl-8-(4-(pyrrolidine-1-carbonyl)phenyl)-3H-benzo[b]azepine-4-carboxamide], for which the concentration giving a half-maximal response (EC50) fell in the range of 100 to 1000 nM. In the case of `CCCN(C(=O)C1=Cc2ccc(-c3ccc(C(=O)N4CCCC4)cc3)cc2N=C(N)C1)C(C)CC` (stereo not shown) [Compound 102, (1E,4E)-2-amino-N-sec-butyl-N-propyl-8-(4-(pyrrolidine-1-carbonyl)phenyl)-3H-benzo[b]azepine-4-carboxamide], the EC50 lay within 100 to 1000 nM. The figure for `CCCN(CCO)C(=O)C1=Cc2ccc(-c3ccc(C(=O)N4CCCC4)cc3)cc2N=C(N)C1` [Compound 107, (1E,4E)-2-amino-N-(2-hydroxyethyl)-N-propyl-8-(4-(pyrrolidine-1-carbonyl)phenyl)-3H-benzo[b]azepine-4-carboxamide] is 1 to 100 nM; for `CCCN(CC(O)CO)C(=O)C1=Cc2ccc(-c3ccc(C(=O)N4CCCC4)cc3)cc2N=C(N)C1` (stereo not shown) [Compound 110, (1E,4E)-2-amino-N-(2,3-dihydroxypropyl)-N-propyl-8-(4-(pyrrolidine-1-carbonyl)phenyl)-3H-benzo[b]azepine-4-carboxamide] it is 1000 to 10000 nM; for `NC1=Nc2cc(-c3ccc(C(=O)N4CCCC4)cc3)ccc2C=C(C(=O)N(C2CCNCC2)C2CC2)C1` [Compound 115, (1E,4E)-2-amino-N-cyclopropyl-N-(piperidin-4-yl)-8-(4-(pyrrolidine-1-carbonyl)phenyl)-3H-benzo[b]azepine-4-carboxamide] it is 1000 to 10000 nM. Consider `COCCN(CCOC)C(=O)C1=Cc2ccc(-c3ccc(C(=O)N4CCCC4)cc3)cc2N=C(N)C1` [Compound 120, (1E,4E)-2-amino-N,N-bis(2-methoxyethyl)-8-(4-(pyrrolidine-1-carbonyl)phenyl)-3H-benzo[b]azepine-4-carboxamide], for which the EC50 is 1000 to 10000 nM. The figure for `NC1=Nc2cc(-c3ccc(C(=O)N4CCCC4)cc3)ccc2C=C(C(=O)N2CCCC2)C1` [Compound 121, (4-((1E,4E)-2-amino-4-(pyrrolidine-1-carbonyl)-3H-benzo[b]azepin-8-yl)phenyl)(pyrrolidin-1-yl)methanone] is 10000 to 100000 nM. Turning to `NC1=Nc2cc(-c3ccc(C(=O)N4CCCC4)cc3)ccc2C=C(C(=O)N2CCCCC2)C1` [Compound 122, (4-((1E,4E)-2-amino-4-(piperidine-1-carbonyl)-3H-benzo[b]azepin-8-yl)phenyl)(pyrrolidin-1-yl)methanone], the concentration for a half-maximal effect (EC50) is 1000 to 10000 nM. For the molecule `CCCN(CCC)C(=O)C1=Cc2ccc(-c3ccc(C(=O)N4C[C@H](O)[C@@H](O)C4)cc3)cc2N=C(N)C1` [Compound 129, (1E,4E)-2-amino-8-(4-((3S,4S)-3,4-dihydroxypyrrolidine-1-carbonyl)phenyl)-N,N-dipropyl-3H-benzo[b]azepine-4-carboxamide], the EC50 was 100 to 1000 nM. The figure for `CCCN(CCC)C(=O)C1=Cc2ccc(-c3ccc(C(=O)N4C[C@@H](O)[C@H](O)C4)cc3)cc2N=C(N)C1` [Compound 130, (1E,4E)-2-amino-8-(4-((3R,4R)-3,4-dihydroxypyrrolidine-1-carbonyl)phenyl)-N,N-dipropyl-3H-benzo[b]azepine-4-carboxamide] is 100 to 1000 nM; for `CCOC(=O)C1=Cc2ccc(-c3ccccn3)cc2N=C(N)C1` [Compound 141, (1E,4E)-ethyl 2-amino-8-(pyridin-2-yl)-3H-benzo[b]azepine-4-carboxylate] it is 100 to 1000 nM.

For the molecule `CCOC(=O)C1=Cc2ccc(-c3cccc(C#N)c3)cc2N=C(N)C1` [Compound 145, (1E,4E)-ethyl 2-amino-8-(3-cyanophenyl)-3H-benzo[b]azepine-4-carboxylate], the EC50 fell in the range of 1 to 100 nM. The figure for `CCOC(=O)C1=Cc2ccc(-c3ccc(C#N)cc3)cc2N=C(N)C1` [Compound 146, (1E,4E)-ethyl 2-amino-8-(4-cyanophenyl)-3H-benzo[b]azepine-4-carboxylate] is 100 to 1000 nM; for `CCOC(=O)C1=Cc2ccc(-c3ccc(C(=O)N(CC)CC)cc3)cc2N=C(N)C1` [Compound 155, (1E,4E)-ethyl 2-amino-8-(4-(diethylcarbamoyl)phenyl)-3H-benzo[b]azepine-4-carboxylate] it is 100 to 1000 nM. The figure for `CCOC(=O)C1=Cc2ccc(-c3ccc(C(=O)N4CCCCC4)cc3)cc2N=C(N)C1` [Compound 156, (1E,4E)-ethyl 2-amino-8-(4-(piperidine-1-carbonyl)phenyl)-3H-benzo[b]azepine-4-carboxylate] is 100 to 1000 nM; for `CCCN(CCNS(C)(=O)=O)C(=O)C1=Cc2ccc(-c3ccc(C(=O)N4CCCC4)cc3)cc2N=C(N)C1` [Compound 176, (1E,4E)-2-amino-N-(2-(methylsulfonamido)ethyl)-N-propyl-8-(4-(pyrrolidine-1-carbonyl)phenyl)-3H-benzo[b]azepine-4-carboxamide] it is 1000 to 10000 nM. The figure for `CCCN(CCC)C(=O)C1=Cc2ccc(-c3cccc(C(=O)O)c3)cc2N=C(N)C1` [Compound 186, 3-((1E,4E)-2-amino-4-(dipropylcarbamoyl)-3H-benzo[b]azepin-8-yl)benzoic acid] is 10000 to 100000 nM; for `CCCN(CCC)C(=O)C1=Cc2ccc(-c3cccc(C(=O)OCC)c3)cc2N=C(N)C1` [Compound 187, Ethyl 3-((1E,4E)-2-amino-4-(dipropylcarbamoyl)-3H-benzo[b]azepin-8-yl)benzoate] it is 100 to 1000 nM; for `CCCN(CCC)C(=O)C1=Cc2ccc(-c3ccc(C(=O)O)cc3)cc2N=C(N)C1` [Compound 188, 4-((1E,4E)-2-amino-4-(dipropylcarbamoyl)-3H-benzo[b]azepin-8-yl)benzoic acid] it is 1000 to 10000 nM. In the case of `CCCN(CCCF)C(=O)C1=Cc2ccc(-c3ccc(C(=O)N4CCCC4)cc3)cc2N=C(N)C1` [Compound 202, (1E,4E)-2-Amino-N-(3-fluoropropyl)-N-propyl-8-(4-(pyrrolidine-1-carbonyl)phenyl)-3H-benzo[b]azepine-4-carboxamide], the EC50 is 100 to 1000 nM. In the case of `CCCN(CCCF)C(=O)C1=Cc2ccc(-c3ccc(C(=O)OCC)cc3)cc2N=C(N)C1` [Compound 208, Ethyl 4-((1E,4E)-2-amino-4-((3-fluoropropyl)(propyl)carbamoyl)-3H-benzo[b]azepin-8-yl)benzoate] it was 1000 to 10000 nM. The figure for `CCCN(CCCO)C(=O)C1=Cc2ccc(-c3ccc(C(=O)O)cc3)cc2N=C(N)C1` [Compound 209, 4-((1E,4E)-2-Amino-4-((3-hydroxypropyl)(propyl)carbamoyl)-3H-benzo[b]azepin-8-yl)benzoic acid] is 10000 to 100000 nM.
